Results: patent publication US20080249156A1, “Combinations of statins and anti-obesity agent and glitazones” (priority 2007, published 2008)
Like-named read-outs stand apart in the source and are kept apart here.

How the values were obtained:
[1] = not given; remark: listed apart in the source
[2] = Example 1, patient on rosiglitazone 4 mg once a day
[3] = Example 2, patient on rosiglitazone 4 mg twice a day and metformin 500 mg twice daily
[4] = Example 3, patient on rosiglitazone 8 mg once daily and metformin 500 mg once daily

CN(CCOc1ccc(CC2SC(=O)NC2=O)cc1)c1ccccn1 (stereo not drawn) [rosiglitazone]
increase: body weight since beginning the rosiglitazone therapy [2] | body weight since beginning the rosiglitazone therapy [3] | body weight since beginning the rosiglitazone therapy [4] | total cholesterol since beginning the rosiglitazone therapy [1, 2] | total cholesterol since beginning the rosiglitazone therapy [1, 3] | total cholesterol since beginning the rosiglitazone therapy [1, 4]
